According to patent US20130338032A1, “ASSAY FOR DETERMINING EPIGENETIC PROFILES OF MARKERS OF FRAGILE X ALLELES” (Murdoch Childrens Research Institute, priority 2009, published 2013):

What was measured:
Assay type in all cases: cell-based, human
[1] = system: FMR4/ASFMR1 mRNA; assay: FMR4/ASFMR1 mRNA (real-time PCR) in lymphoblast cell lines treated with 5-aza
Method: (§1) FIG. 1B through J is a graphical representation of the expression of the FMR1 and FRR4 mRNA and FREE1 methylation in lymphoblast cultures with selectively depleted DNMTI. Cell lines from (B, C, D) a HC cell line (30 CGGs), (E, F, G) a PM cell line (103 CGGs) and (H, I, J) a FM cell line from an FXS individual (490 CGGs) were cultured for 3 days in standard RPMI medium/10% v/v fetal bovine serum treated with different doses of 5-aza-deoxycytidine, in triplicate wells, with half of the cells from each well taken for DNA methylation analysis, and the other half for mRNA analyses. FREE1 methylation for each sample was examined from duplicate bisulfite reactions, with single PCR products made from each conversion. The 0.1 methylation output ratio cutoff was not used for this experiment due to an increased number of technical replicates, with values expressed as means of six technical replicates per condition. Methylation and mRNA levels were assessed in the same wells using MALDI-TOF MS and real-time PCR, respectively. The error bars represent standard error (n=3 to 6). All conditions were compared to 0 μM 5-aza control: ***-p<0.001; **-p<0.05.
(§2) Lymphoblast cell lines were established by Epstein-Barr virus (EBV) transformation from peripheral blood of individuals with: 30, 170 and 490 repeats. […] The cell-viability counts and cell composition were determined by trypan blue exclusion, using a hemocytometer. […]
Total RNA was extracted and purified using the Rneasy extraction kit, as per manufacturer's instructions (Qiagen Inc., Hilden, Germany). RNA concentrations were measured in triplicate using a NanoDrop ND-1000 Spectrophotometer, with purity being determined by the A260/A280 ratio using the expected values between 1.8 and 2. Total RNA quality and the degree of DNA contamination was also assessed using capillary electrophoresis Standard Sens Kit (Bio-rad), which involved descriptive comparison of chromatographic features based on previous publications using this system (Fleige and Pfaffl, Mol Aspects Med 27(2-3):126-139, 2006). […]

[2] = system: FREE1; assay: FREE1 methylation (MALDI-TOF MS) in lymphoblast cell lines treated with 5-aza
Method: as §1
Lymphoblast cell lines were established by Epstein-Barr virus (EBV) transformation from peripheral blood of individuals with: 30, 170 and 490 repeats. The cell lines were treated with 5 aza based on a previously described protocol (Pietrobono et al, 2002, supra). Briefly, A 10 mM stock solution of 5-aza (Sigma-Aldrich) was initially prepared in sterile water. The cell-viability counts and cell composition were determined by trypan blue exclusion, using a hemocytometer. Cells were then resuspended at a density of […] in RPMI medium (Sigma St Luis, Mo., USA)/10% v/v Fetal bovine serum (CSL) at 37° C., 5% v/v CO2, supplemented with of 5-aza stock and thoroughly resuspended. The cells were cultured in triplicate wells for each of the four final 5-Aza concentrations of: 0, 1, 10 and 100 μM. […]

[3] = system: FMR1 mRNA; assay: FMR1 mRNA (real-time PCR) in lymphoblast cell lines treated with 5-aza; conditions: 5-aza 0, 1, 10, 100 μM, 3 days
Method: as §1, with “All conditions were compared to 0 μM 5-aza control: ***-p<0.001; **-p<0.05.” left out
as §2

[4] = GZ and PM cell lines, 5-aza 0, 1, 10, 100 μM, 3 days
[5] = cell lines for FM carriers affected with FXS, 5-aza 0, 1, 10, 100 μM, 3 days
[6] = cell lines from carriers of CGG alleles ranging from normal size to FM, 5-Aza treatment

Nc1ncn([C@H]2C[C@H](O)[C@@H](CO)O2)c(=O)n1 [5-aza, 5-aza-2′-deoxycytidine]
ASFMR1/FMR4 mRNA levels [1, 4]: increase | mRNA levels of ASFMR1/FMR4 [1, 5]: increase in mRNA levels | FMR4/ASFMR1 transcription within the FREE1 [1, 6]: increase FMR4/ASFMR1 transcription | FREE1 methylation [2, 4]: further demethylation of FREE1 | FREE1 methylation [2, 5]: demethylation of FREE1 | FREE1 methylation [2, 6]: de-methylation of the FREE1 | FMR1 mRNA levels ([3]; GZ and PM cell lines): increase | mRNA levels of FMR1 ([3]; cell lines for FM carriers affected with FXS): increase in mRNA levels
